# Data as given in PubChem BioAssay (NCI).
#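 Values below derive from 48-hour exposures of cells grown in 96-well plates, with endpoints linearly interpolated between the two concentrations bracketing the appropriate inhibition level. At the GI50, growth is halved. TGI: total growth inhibition.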
# Tests used:
# Test in all cases: NCI anticancer screen, dose series, 48 h
# MDA-MB-231 breast = tested on: MDA-MB-231 breast
# PC-3 prostate = tested on: PC-3 prostate
# HS 578T breast = tested on: HS 578T breast
# DU-145 prostate = tested on: DU-145 prostate
# XF 498 CNS = tested on: XF 498 CNS
# HOP-18 NSCLC = tested on: HOP-18 NSCLC
# DMS 114 small cell lung = tested on: DMS 114 small cell lung
# M19-MEL melanoma = tested on: M19-MEL melanoma
# DMS 273 small cell lung = tested on: DMS 273 small cell lung
# SNB-78 CNS = tested on: SNB-78 CNS
Compound,TGI (MDA-MB-231 breast),TGI (PC-3 prostate),TGI (HS 578T breast),TGI (DU-145 prostate),TGI (XF 498 CNS),TGI (HOP-18 NSCLC),TGI (DMS 114 small cell lung),TGI (M19-MEL melanoma),TGI (DMS 273 small cell lung),TGI (SNB-78 CNS),also measured
Cc1nc(N)sc1-c1ccnc(Nc2ccc(N3CCOCC3)cc2)n1,> 100 µM,> 100 µM,> 100 µM,> 100 µM,,,,,,,GI50 (MDA-MB-231 breast): 3.1 µM; GI50 (PC-3 prostate): 1.81 µM; GI50 (HS 578T breast): 0.603 µM; GI50 (DU-145 prostate): 2.99 µM
NC(N)=NCCN=C(N)N,> 100 µM,> 100 µM,> 100 µM,> 100 µM,,,,,,,
O=[N+]([O-])c1ccc(C=C2C(Cl)=C(Cl)C(Cl)=C2Cl)cc1,> 100 µM,8.35 µM,,,,,,,,,GI50 (MDA-MB-231 breast): 3.39 µM; GI50 (PC-3 prostate): 2.71 µM
Cc1ccc2c(n1)C(=O)c1[nH]c3ccccc3c1C2=O,73.6 µM,> 100 µM,7.16 µM,2.53 µM,,,,,,,GI50 (MDA-MB-231 breast): 1.85 µM; GI50 (PC-3 prostate): 1.63 µM; GI50 (HS 578T breast): 2.54 µM; GI50 (DU-145 prostate): 1.19 µM
NC(Cc1cccc([N+](=O)[O-])c1)C(=O)O (centres undefined),> 100 µM,> 100 µM,> 100 µM,> 100 µM,,,,,,,
COc1ccc(C2CC(c3cccc(Nc4ccncc4)c3)=NN2c2cc(Cl)cc(Cl)c2)cc1 (centres undefined),,3.16 µM,,3.58 µM,,,,,,,GI50 (PC-3 prostate): 1.54 µM; GI50 (DU-145 prostate): 1.89 µM
CCC[CH2][Ge]([CH2]CCC)([CH2]CCC)[O]C(=O)CC(=O)c1ccccc1,,,,,23.8 µM,22.7 µM,3.32 µM,19.3 µM,13.4 µM,,GI50 (XF 498 CNS): 11.6 µM; GI50 (HOP-18 NSCLC): 10.8 µM; GI50 (DMS 114 small cell lung): 0.0424 µM; GI50 (M19-MEL melanoma): 3.83 µM; GI50 (DMS 273 small cell lung): 0.752 µM
NCCCNc1nc2ccccc2c2c(=O)c3cc(OC(F)(F)F)ccc3sc12,2.6 µM,3.19 µM,,3.04 µM,,,,,,,GI50 (MDA-MB-231 breast): 1.26 µM; GI50 (PC-3 prostate): 1.67 µM; GI50 (DU-145 prostate): 1.62 µM
NNC(N)Nc1ccccc1 (centres undefined),> 100 µM,> 100 µM,> 100 µM,> 100 µM,,,,,,,
NC(CCCCP(=O)(O)O)C(=O)O (centres undefined),> 100 µM,> 100 µM,> 100 µM,> 100 µM,,,,,,,
CC1CC=CC(O)C1 (centres undefined),,,,,> 100 µM,> 100 µM,> 100 µM,> 100 µM,> 100 µM,> 100 µM,
O=C(OC(=O)n1ccc2ccccc21)n1ccc2ccccc21,,,,,> 100 µM,> 100 µM,> 100 µM,> 100 µM,> 100 µM,> 100 µM,
O=NN(CCCl)C(=O)NC1CCSc2ccccc21 (centres undefined),,,,,> 100 µM,> 100 µM,> 100 µM,> 100 µM,> 100 µM,> 100 µM,
C[C@]12C=CC(=O)C=C1CC[C@H]1[C@@H]3C[C@@H](O)[C@](O)(C(=O)CO)[C@@]3(C)C[C@H](O)[C@@]12F,,,,,> 100 µM,,> 100 µM,> 100 µM,> 100 µM,> 100 µM,
COc1ccccc1C1C(C(=O)O)=C(CO)Oc2cc3c(cc21)OCO3 (centres undefined),,,,,,> 100 µM,> 100 µM,> 100 µM,> 100 µM,> 100 µM,
Cc1ccc(S(=O)(=O)Oc2cc(-c3ccccc3)nc3ccccc23)cc1,,,,,24.3 µM,45.8 µM,1.24 µM,40.6 µM,> 28 µM,50.6 µM,
CC(=O)Oc1cccc2c(/C=N/NC(N)=S)ncc(C)c12,25.8 µM,33.6 µM,> 73 µM,17.8 µM,,,,,,,
